In ChEMBL document CHEMBL4393686, “InCl3 mediated heteroarylation of indoles and their derivatization via CH activation strategy: Discovery of 2-(1H-indol-3-yl)-quinoxaline derivatives as a new class of PDE4B selective inhibitors for arthritis and/or multiple sclerosis” (Eur J Med Chem, 2019):
The source made the active and inactive calls. No cut-off for these calls is given here.

Tests used:
[1] = target: T1, 3',5'-cyclic-AMP phosphodiesterase 4B (Homo sapiens, UniProt Q07343); assay: Inhibition of recombinant His-tagged human PDE4B expressed in Sf9 cells using cAMP as substrate preincubated with enzyme for 15 mins followed by substrate addition and incubated for 1 hr by PDELight HTS cAMP phosphodiesterase Kit based luminometry
[2] = target: T1, 3',5'-cyclic-AMP phosphodiesterase 4B; assay: Inhibition of human recombinant His-tagged PDE4B expressed in Sf9 cells using cAMP as substrate at 10 uM preincubated with enzyme for 15 mins followed by substrate addition and incubated for 1 hr by PDELight HTS cAMP phosphodiesterase Kit based luminometry relative to control
[3] = Inhibition of recombinant N-terminal GST-tagged full length human PDE4A1A expressed in Sf9 cells using cAMP as substrate at 0.1xIC50 incubated for 60 mins by fluorescence plate reader analysis
[4] = target: 3',5'-cyclic-AMP phosphodiesterase 4A (Homo sapiens) (UniProt P27815); assay: Inhibition of recombinant N-terminal GST tagged human PDE4A4B (2-end aa) expressed in Sf9 cells using FAM-cAMP as substrate at 0.1xIC50 incubated for 60 mins by fluorescence plate reader analysis
[5] = Inhibition of recombinant N-terminal GST-tagged full length human PDE4A1A expressed in Sf9 cells using cAMP as substrate at 1xIC50 incubated for 60 mins by fluorescence plate reader analysis
[6] = target: 3',5'-cyclic-AMP phosphodiesterase 4A (Homo sapiens) (UniProt P27815); assay: Inhibition of recombinant N-terminal GST tagged human PDE4A4B (2-end aa) expressed in Sf9 cells using FAM-cAMP as substrate at 1xIC50 incubated for 60 mins by fluorescence plate reader analysis
[7] = Inhibition of recombinant N-terminal GST-tagged full length human PDE4A1A expressed in Sf9 cells using cAMP as substrate at 10xIC50 incubated for 60 mins by fluorescence plate reader analysis
[8] = target: 3',5'-cyclic-AMP phosphodiesterase 4A (Homo sapiens) (UniProt P27815); assay: Inhibition of recombinant N-terminal GST tagged human PDE4A4B (2-end aa) expressed in Sf9 cells using FAM-cAMP as substrate at 10xIC50 incubated for 60 mins by fluorescence plate reader analysis
[9] = Toxicity in zebrafish embryo assessed as effect in liver formation at 3000 uM; set-up: species or system Danio rerio; settings: in vivo
[10] = Toxicity in zebrafish embryo assessed as effect in swim bladder formation at 3000 uM; set-up: species or system Danio rerio; settings: in vivo
[11] = Toxicity in zebrafish embryo assessed as effect in lower jaw formation at 3000 uM; set-up: species or system Danio rerio; settings: in vivo
[12] = Toxicity in zebrafish embryo assessed as effect in intestine formation at 3000 uM; assay type: tissue-based, Danio rerio; settings: in vivo
[13] = Toxicity in zebrafish embryo assessed as effect in heart formation at 3000 uM; assay type: tissue-based, Danio rerio; settings: in vivo
[14] = Toxicity in zebrafish embryo assessed as effect in upper jaw formation at 3000 uM; set-up: species or system Danio rerio; settings: in vivo
[15] = Toxicity in zebrafish embryo assessed as effect in brain formation at 3000 uM; assay type: tissue-based, Danio rerio; settings: in vivo
[16] = Toxicity in zebrafish embryo assessed as effect in fin formation at 3000 uM; set-up: species or system Danio rerio; settings: in vivo
[17] = Toxicity in zebrafish embryo assessed as effect in tail formation at 3000 uM; set-up: species or system Danio rerio; settings: in vivo
[18] = Toxicity in zebrafish embryo assessed as effect in notochord formation at 3000 uM; set-up: species or system Danio rerio; settings: in vivo
[19] = Toxicity in zebrafish embryo assessed as effect in somite formation at 3000 uM; set-up: species or system Danio rerio; settings: in vivo
[20] = Toxicity in zebrafish embryo assessed as change in body shape at 3000 uM; set-up: species or system Danio rerio; settings: in vivo
Danio rerio = assay: Anti-sclerotic activity in MOG/CFA-induced zebra fish EAE model assessed as reduction in lesion score at 1 mg/kg, po measured for 7 days; assay type: functional, organism-based
[21] = target: cGMP-inhibited 3',5'-cyclic phosphodiesterase 3A (Homo sapiens) (UniProt Q14432); assay: Inhibition of recombinant PDE3A (unknown origin) using FAM-cAMP as substrate at 0.1xIC50 incubated for 60 mins by fluorescence plate reader analysis
[22] = target: cGMP-inhibited 3',5'-cyclic phosphodiesterase 3B (Homo sapiens) (UniProt Q13370); assay: Inhibition of recombinant N-terminal GST-tagged human PDE3B (592-end aa) expressed in Sf9 cells using FAM-cAMP as substrate at 0.1xIC50 incubated for 60 mins by fluorescence plate reader analysis
[23] = target: cGMP-inhibited 3',5'-cyclic phosphodiesterase 3A (Homo sapiens) (UniProt Q14432); assay: Inhibition of recombinant PDE3A (unknown origin) using FAM-cAMP as substrate at 1xIC50 incubated for 60 mins by fluorescence plate reader analysis
[24] = target: cGMP-inhibited 3',5'-cyclic phosphodiesterase 3B (Homo sapiens) (UniProt Q13370); assay: Inhibition of recombinant N-terminal GST-tagged human PDE3B (592-end aa) expressed in Sf9 cells using FAM-cAMP as substrate at 1xIC50 incubated for 60 mins by fluorescence plate reader analysis
[25] = target: cGMP-inhibited 3',5'-cyclic phosphodiesterase 3A (Homo sapiens) (UniProt Q14432); assay: Inhibition of recombinant PDE3A (unknown origin) using FAM-cAMP as substrate at 10xIC50 incubated for 60 mins by fluorescence plate reader analysis
[26] = target: cGMP-inhibited 3',5'-cyclic phosphodiesterase 3B (Homo sapiens) (UniProt Q13370); assay: Inhibition of recombinant N-terminal GST-tagged human PDE3B (592-end aa) expressed in Sf9 cells using FAM-cAMP as substrate at 10xIC50 incubated for 60 mins by fluorescence plate reader analysis
[27] = target: High affinity 3',5'-cyclic-AMP phosphodiesterase 7A (Homo sapiens) (UniProt Q13946); assay: Inhibition of recombinant N-terminal GST tagged human PDE7A1 (122-end aa) expressed in Sf9 cells using FAM-cAMP as substrate at 0.1xIC50 incubated for 60 mins by fluorescence plate reader analysis
[28] = target: High affinity 3',5'-cyclic-AMP phosphodiesterase 7A (Homo sapiens) (UniProt Q13946); assay: Inhibition of recombinant N-terminal GST tagged human PDE7A1 (122-end aa) expressed in Sf9 cells using FAM-cAMP as substrate at 1xIC50 incubated for 60 mins by fluorescence plate reader analysis
[29] = target: High affinity 3',5'-cyclic-AMP phosphodiesterase 7A (Homo sapiens) (UniProt Q13946); assay: Inhibition of recombinant N-terminal GST tagged human PDE7A1 (122-end aa) expressed in Sf9 cells using FAM-cAMP as substrate at 10xIC50 incubated for 60 mins by fluorescence plate reader analysis
[30] = target: 3',5'-cyclic-AMP phosphodiesterase 4D (Homo sapiens, UniProt Q08499); assay: Inhibition of PDE4D2 (unknown origin) using cAMP as substrate preincubated with enzyme for 15 mins followed by substrate addition and incubated for 1 hr by PDELight HTS cAMP phosphodiesterase Kit based luminometry
Homo sapiens [31] = species: Homo sapiens; assay: Selectivity index, ratio of IC50 for PDE4D2 (unknown origin) to IC50 for recombinant His-tagged human PDE4B expressed in sf9 cells using cAMP as substrate by PDELight HTS cAMP phosphodiesterase Kit based luminometry
PDE4C = PDE4C (Homo sapiens, UniProt Q08493); assay: Inhibition of PDE4C (unknown origin) at 100 uM using cAMP as substrate preincubated with enzyme for 15 mins followed by substrate addition and incubated for 1 hr by PDELight HTS cAMP phosphodiesterase Kit based luminometry relative to control; settings: probe cAMP
Homo sapiens [32] = species: Homo sapiens; assay: Selectivity for recombinant His-tagged human PDE4B over PDE4C (unknown origin)

cGMP-inhibited 3',5'-cyclic phosphodiesterase 3A (Homo sapiens), sequence (Q14432 whole entry): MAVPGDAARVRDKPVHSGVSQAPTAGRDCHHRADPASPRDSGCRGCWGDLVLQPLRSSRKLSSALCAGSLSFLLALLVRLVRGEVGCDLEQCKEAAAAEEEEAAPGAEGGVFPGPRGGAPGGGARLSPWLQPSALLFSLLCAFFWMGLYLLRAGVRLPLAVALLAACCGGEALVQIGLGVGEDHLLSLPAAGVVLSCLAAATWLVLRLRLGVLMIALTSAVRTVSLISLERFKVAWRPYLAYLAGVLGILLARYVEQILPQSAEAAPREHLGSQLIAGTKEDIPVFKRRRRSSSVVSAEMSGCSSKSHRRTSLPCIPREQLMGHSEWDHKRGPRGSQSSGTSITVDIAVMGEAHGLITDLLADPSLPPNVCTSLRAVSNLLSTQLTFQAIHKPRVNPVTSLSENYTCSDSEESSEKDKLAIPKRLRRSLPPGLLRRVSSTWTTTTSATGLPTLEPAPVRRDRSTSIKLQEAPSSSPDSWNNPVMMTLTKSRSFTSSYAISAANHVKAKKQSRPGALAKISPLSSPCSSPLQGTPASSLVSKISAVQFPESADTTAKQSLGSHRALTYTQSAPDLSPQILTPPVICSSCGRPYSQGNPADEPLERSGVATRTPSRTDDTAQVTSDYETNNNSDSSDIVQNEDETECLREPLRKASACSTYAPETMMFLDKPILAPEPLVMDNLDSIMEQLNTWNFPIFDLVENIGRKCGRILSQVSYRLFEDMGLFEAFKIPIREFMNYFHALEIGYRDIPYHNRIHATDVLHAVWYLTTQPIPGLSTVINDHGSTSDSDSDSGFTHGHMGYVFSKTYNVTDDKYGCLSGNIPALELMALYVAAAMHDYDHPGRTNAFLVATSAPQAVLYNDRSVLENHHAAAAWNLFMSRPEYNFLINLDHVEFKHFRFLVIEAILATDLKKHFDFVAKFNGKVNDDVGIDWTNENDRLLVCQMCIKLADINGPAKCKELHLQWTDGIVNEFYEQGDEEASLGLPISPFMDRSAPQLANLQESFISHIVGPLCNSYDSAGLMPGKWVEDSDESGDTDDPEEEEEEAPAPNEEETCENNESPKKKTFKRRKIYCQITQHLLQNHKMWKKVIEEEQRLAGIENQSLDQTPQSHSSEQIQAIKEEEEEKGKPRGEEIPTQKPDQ
T1 sequence (Q07343 whole entry): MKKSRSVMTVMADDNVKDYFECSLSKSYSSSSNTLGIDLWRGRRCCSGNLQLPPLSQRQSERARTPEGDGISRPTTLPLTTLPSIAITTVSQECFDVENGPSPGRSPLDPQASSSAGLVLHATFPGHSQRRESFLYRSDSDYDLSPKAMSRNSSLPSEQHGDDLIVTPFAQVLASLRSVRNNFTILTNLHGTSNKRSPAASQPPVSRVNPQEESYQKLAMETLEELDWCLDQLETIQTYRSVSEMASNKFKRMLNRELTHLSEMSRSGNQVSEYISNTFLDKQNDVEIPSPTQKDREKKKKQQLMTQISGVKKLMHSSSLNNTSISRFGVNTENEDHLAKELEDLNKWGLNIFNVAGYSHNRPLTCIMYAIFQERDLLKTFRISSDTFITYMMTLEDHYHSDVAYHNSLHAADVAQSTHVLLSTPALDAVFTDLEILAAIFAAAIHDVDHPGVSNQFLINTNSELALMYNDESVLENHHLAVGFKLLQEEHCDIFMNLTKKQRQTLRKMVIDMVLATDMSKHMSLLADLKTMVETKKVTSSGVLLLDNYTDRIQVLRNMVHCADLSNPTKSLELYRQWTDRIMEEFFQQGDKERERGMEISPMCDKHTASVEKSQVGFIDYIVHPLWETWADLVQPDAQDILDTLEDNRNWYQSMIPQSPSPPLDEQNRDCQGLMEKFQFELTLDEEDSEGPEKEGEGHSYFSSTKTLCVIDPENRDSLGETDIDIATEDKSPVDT
3',5'-cyclic-AMP phosphodiesterase 4A (Homo sapiens), sequence (P27815 whole entry): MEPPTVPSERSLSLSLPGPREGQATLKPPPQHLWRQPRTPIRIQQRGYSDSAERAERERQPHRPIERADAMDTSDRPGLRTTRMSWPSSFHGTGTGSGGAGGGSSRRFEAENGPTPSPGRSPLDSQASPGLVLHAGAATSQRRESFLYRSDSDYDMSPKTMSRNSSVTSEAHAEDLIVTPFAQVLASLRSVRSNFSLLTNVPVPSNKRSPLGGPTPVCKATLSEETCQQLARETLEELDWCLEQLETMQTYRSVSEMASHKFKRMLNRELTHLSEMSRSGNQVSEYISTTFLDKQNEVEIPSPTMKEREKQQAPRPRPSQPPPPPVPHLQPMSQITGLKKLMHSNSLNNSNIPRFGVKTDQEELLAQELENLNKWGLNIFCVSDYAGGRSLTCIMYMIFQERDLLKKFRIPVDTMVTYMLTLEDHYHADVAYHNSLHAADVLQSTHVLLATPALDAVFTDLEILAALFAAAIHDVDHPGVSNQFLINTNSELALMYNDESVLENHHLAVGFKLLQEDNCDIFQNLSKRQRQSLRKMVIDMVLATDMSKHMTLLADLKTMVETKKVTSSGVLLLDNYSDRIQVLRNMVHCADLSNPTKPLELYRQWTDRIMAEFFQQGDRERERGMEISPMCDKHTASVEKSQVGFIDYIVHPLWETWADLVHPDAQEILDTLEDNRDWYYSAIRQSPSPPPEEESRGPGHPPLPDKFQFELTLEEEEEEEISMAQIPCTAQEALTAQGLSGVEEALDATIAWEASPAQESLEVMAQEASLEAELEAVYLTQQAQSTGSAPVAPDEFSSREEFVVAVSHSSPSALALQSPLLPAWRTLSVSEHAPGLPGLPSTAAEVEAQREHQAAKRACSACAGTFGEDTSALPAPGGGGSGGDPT
cGMP-inhibited 3',5'-cyclic phosphodiesterase 3B (Homo sapiens), sequence (Q13370 whole entry, looked up): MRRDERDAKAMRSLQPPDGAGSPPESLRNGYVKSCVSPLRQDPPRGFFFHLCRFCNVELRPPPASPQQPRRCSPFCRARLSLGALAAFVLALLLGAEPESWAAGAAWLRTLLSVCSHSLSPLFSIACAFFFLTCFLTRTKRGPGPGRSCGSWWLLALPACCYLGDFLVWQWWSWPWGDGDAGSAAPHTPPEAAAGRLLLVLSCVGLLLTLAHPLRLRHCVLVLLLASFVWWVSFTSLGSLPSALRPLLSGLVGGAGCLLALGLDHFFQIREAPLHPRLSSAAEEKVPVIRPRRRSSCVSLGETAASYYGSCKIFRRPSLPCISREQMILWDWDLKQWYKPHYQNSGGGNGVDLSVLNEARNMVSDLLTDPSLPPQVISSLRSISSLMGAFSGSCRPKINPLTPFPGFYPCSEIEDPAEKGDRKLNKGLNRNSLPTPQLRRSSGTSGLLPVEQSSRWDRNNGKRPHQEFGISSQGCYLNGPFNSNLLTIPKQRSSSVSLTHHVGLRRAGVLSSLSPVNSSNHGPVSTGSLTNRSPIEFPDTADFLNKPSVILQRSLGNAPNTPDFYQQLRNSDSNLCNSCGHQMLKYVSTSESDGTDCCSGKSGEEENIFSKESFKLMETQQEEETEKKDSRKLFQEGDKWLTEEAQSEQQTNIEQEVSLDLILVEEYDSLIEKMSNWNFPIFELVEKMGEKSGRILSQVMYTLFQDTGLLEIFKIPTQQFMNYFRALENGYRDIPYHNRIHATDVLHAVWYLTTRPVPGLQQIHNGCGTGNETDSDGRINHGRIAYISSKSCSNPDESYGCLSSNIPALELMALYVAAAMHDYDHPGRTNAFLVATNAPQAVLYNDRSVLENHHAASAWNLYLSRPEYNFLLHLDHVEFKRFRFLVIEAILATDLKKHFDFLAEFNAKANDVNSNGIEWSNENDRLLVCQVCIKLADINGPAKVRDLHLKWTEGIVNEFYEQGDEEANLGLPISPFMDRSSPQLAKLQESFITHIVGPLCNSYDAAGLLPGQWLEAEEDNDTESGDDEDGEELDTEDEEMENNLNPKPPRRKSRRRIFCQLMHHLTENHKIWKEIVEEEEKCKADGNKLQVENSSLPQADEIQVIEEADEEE
High affinity 3',5'-cyclic-AMP phosphodiesterase 7A (Homo sapiens), sequence (Q13946 whole entry): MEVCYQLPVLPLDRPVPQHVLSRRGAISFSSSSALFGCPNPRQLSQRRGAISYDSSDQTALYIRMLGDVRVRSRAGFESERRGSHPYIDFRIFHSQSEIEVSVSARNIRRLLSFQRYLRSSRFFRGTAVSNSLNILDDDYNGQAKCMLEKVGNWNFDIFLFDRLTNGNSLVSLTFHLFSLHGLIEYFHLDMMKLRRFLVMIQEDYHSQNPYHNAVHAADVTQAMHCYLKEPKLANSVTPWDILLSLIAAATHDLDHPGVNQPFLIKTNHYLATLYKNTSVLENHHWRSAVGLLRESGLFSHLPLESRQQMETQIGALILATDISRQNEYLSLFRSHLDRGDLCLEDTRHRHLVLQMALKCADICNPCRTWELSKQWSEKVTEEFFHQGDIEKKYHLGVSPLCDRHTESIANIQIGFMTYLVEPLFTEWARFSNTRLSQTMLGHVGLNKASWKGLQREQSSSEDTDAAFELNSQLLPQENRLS
PDE4C, sequence (Q08493 whole entry): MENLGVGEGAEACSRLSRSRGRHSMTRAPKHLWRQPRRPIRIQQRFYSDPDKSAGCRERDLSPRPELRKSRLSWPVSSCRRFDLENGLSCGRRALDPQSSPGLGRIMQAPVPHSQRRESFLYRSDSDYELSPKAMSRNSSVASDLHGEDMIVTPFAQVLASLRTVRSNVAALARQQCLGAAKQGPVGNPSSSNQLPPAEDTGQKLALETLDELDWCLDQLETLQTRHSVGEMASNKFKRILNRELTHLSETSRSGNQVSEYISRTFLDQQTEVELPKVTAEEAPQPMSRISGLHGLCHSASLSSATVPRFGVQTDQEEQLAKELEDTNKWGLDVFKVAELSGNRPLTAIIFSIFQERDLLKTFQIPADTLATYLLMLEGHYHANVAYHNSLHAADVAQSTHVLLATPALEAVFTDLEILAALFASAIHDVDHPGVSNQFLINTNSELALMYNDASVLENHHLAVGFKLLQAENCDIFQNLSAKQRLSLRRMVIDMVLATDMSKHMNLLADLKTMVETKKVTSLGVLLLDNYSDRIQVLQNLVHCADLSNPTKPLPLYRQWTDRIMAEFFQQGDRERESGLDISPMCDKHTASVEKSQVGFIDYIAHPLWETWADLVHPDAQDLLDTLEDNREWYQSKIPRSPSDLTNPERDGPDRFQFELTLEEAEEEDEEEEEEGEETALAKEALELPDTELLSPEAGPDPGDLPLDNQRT

CC(C)n1cc(-c2nc3ccccc3nc2Cl)c2cc(Br)ccc21
IC50 [1]: 9.74 µM
inhibition [2]: > 75%

COC(=O)/C=C/c1c(-c2nc3ccccc3nc2Cl)c2cc(OC)ccc2n1C(C)C
IC50 [1]: 5.97 µM
inhibition [2]: > 75%

CCOc1cc([C@@H](CS(C)(=O)=O)N2C(=O)c3cccc(NC(C)=O)c3C2=O)ccc1OC
inhibition [3]: 13%
inhibition [4]: 8%
inhibition [5]: 58%
inhibition [6]: 57%
inhibition [7]: 89%
inhibition [8]: 91%

CCC1(c2ccccc2)C(=O)NC(=O)NC1=O [PHENOBARBITAL]
Activity [9]: Toxic
Activity [10]: Toxic
Activity [11]: Toxic
Activity [12]: Toxic
Activity [13]: Toxic
Activity [14]: Toxic
Activity [15]: Toxic
Activity [16]: Toxic
Activity [17]: Toxic
Activity [18]: Toxic
Activity [19]: Toxic
Activity [20]: Toxic

CCCCCCCCc1ccc(CCC(N)(CO)CO)cc1
inhibition (Danio rerio): Active

CN(C(=O)CCCOc1ccc2[nH]c(=O)ccc2c1)C1CCCCC1
inhibition [21]: 9%
inhibition [22]: 17%
inhibition [23]: 39%
inhibition [24]: 61%
inhibition [25]: 85%
inhibition [26]: 94%

Cc1ccc([N+](=O)[O-])cc1S(=O)(=O)N(C)C
inhibition [27]: 10%
inhibition [28]: 49%
inhibition [29]: 88%

CCOC(=O)Cn1cc(-c2nc3ccccc3nc2Cl)c2cc(OC)ccc21
IC50 [1]: 0.21 µM
inhibition [2]: > 75%
IC50 [30]: 15.2 µM
Ratio IC50 (Homo sapiens [31]): 72
inhibition at 1 h, 100 µM (PDE4C): 20 to 30%
Selectivity ratio (Homo sapiens [32]): > 250

CCC(C)n1cc(-c2nc3ccccc3nc2Cl)c2cc(OC)ccc21 (configuration not stated)
IC50 [1]: 1.04 µM
inhibition [2]: > 75%
IC50 [30]: 4.93 µM
Ratio IC50 (Homo sapiens [31]): 4.75
